Measurements as given in patent US8685636B2, “Heparin-insensitive method for determining direct coagulation factor inhibitors” (Siemens Healthcare Diagnostics Products GmbH, priority 2011, dated 2014).

How the values were obtained:
[1] = target: human factor Xa (Homo sapiens, UniProt P00742); assay: Chromogenic factor Xa inhibition assay in plasma samples pretreated with oxidizing agent (sodium hypochlorite) and neutralizing agent (HCl); format: biochemical; conditions: for ΔA/min (conversion of chromogenic factor Xa substrate): plasma without inhibitor 2268
Description: (§1) Various amounts of direct coagulation factor inhibitors (rivaroxaban as direct factor Xa inhibitor, argatroban as direct thrombin inhibitor) or indirect coagulation factor inhibitors (fondaparinux pentasaccharide [Arixtra®], high-molecular-weight heparin [HMWH]) were added to normal human plasma.
(§2) 20 μl of plasma sample were mixed with 10 μl of a 0.1% strength hypochlorous acid (sodium hypochlorite) as oxidizing agent, and the reaction mix was incubated at +37° C. for 30 seconds. Subsequently, 10 μl of a 0.1% strength hydrochloric acid solution were added to the reaction mix to neutralize the oxidizing agent, and the reaction mix was incubated at +37° C. for 30 seconds. Subsequently, 95 μl of factor Xa reagent (human factor Xa, 1 U/ml in TRIS buffer, pH 8.0) were added to the reaction mix, and the reaction mix was incubated at +37° C. for 30 seconds. Subsequently, 80 μl of a chromogenic factor Xa substrate (Z-D-Leu-Gly-Arg-ANBA-methylamide, 4 mmol/l) were added to the reaction mix, and conversion of the substrate (in ΔA/time) was determined at a wavelength of 405 nm in an automated coagulation measurement instrument (BCS® System, Siemens Healthcare Diagnostics).
(§3) The reduction in substrate conversion compared to plasma without any inhibitors correlates with the amount of inhibitor in the sample.

[2] = target: bovine thrombin (Bos taurus, UniProt P00735); assay: Chromogenic thrombin inhibition assay in plasma samples pretreated with oxidizing agent (sodium hypochlorite) and neutralizing agent (HCl); format: biochemical; conditions: for ΔA/min (conversion of chromogenic thrombin substrate): plasma without inhibitor 2623
Description: as §1
as §2, with “140” for “95”, “thrombin” for “factor Xa”, “(bovine thrombin, 6 U/ml)” for “(human factor Xa, 1 U/ml in TRIS buffer, pH 8.0)”, “50” for “80”, “(Tos-L-Gly-Pro-Arg-ANBA-isopropylamide,” for “(Z-D-Leu-Gly-Arg-ANBA-methylamide,”
as §3

[3] = 20 μg/ml in normal human plasma, pretreated sample
[4] = plasma samples containing the substance
[5] = 200 μg/ml in normal human plasma, pretreated sample
[6] = pretreatment with hypochlorite then HCl
[7] = 200 ng/ml in normal human plasma, pretreated sample

Sequence of human factor Xa (P00742 235-488 limits assumed): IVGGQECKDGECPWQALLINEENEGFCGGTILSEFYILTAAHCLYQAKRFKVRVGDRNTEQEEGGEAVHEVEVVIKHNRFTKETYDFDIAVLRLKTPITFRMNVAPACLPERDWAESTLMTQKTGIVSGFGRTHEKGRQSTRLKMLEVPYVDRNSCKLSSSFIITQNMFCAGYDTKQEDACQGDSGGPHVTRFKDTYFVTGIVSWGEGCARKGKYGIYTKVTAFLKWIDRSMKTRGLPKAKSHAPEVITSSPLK
Sequence of human factor Xa (P00742 41-179 partner limits assumed): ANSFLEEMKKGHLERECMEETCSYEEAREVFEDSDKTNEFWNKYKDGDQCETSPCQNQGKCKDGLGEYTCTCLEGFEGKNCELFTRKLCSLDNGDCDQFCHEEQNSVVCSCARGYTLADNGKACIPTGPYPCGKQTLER

CO[C@H]1O[C@H](COS(=O)(=O)O)[C@@H](O[C@@H]2O[C@@H](C(=O)O)[C@@H](O[C@H]3O[C@H](COS(=O)(=O)O)[C@@H](O[C@@H]4O[C@H](C(=O)O)[C@@H](O[C@H]5O[C@H](COS(=O)(=O)O)[C@@H](O)[C@H](O)[C@H]5NS(=O)(=O)O)[C@H](O)[C@H]4O)[C@H](OS(=O)(=O)O)[C@H]3NS(=O)(=O)O)[C@H](O)[C@H]2OS(=O)(=O)O)[C@H](O)[C@H]1NS(=O)(=O)O [Arixtra, fondaparinux]
inhibition at 1 µg/mL ([1]; 1 μg/ml in normal human plasma, pretreated sample, read-out: FXa inhibition): 4% | inhibition at 4 µg/mL ([1]; 4 μg/ml in normal human plasma, pretreated sample, read-out: FXa inhibition): 3% | inhibition at 1 µg/mL ([2]; 1 μg/ml in normal human plasma, pretreated sample): 5% | inhibition at 4 µg/mL ([2]; 4 μg/ml in normal human plasma, pretreated sample): 2%

CC1CNc2c(cccc2S(=O)(=O)N[C@@H](CCCNC(=N)N)C(=O)N2CC[C@@H](C)C[C@@H]2C(=O)O)C1 (stereo partly drawn) [argatroban]
ΔA/min (conversion of chromogenic factor Xa substrate) [1, 3]: 2176 ΔA/min | inhibition at 20 µg/mL ([1]; 20 μg/ml in normal human plasma, pretreated sample, read-out: FXa inhibition): 4% | factor Xa inhibition (in words) [1, 4]: factor Xa inhibition does not take place | inhibition at 20 µg/mL [2, 3]: 95% | ΔA/min (conversion of chromogenic thrombin substrate) [2, 3]: 140 ΔA/min | inhibition at 200 µg/mL [2, 5]: 99% | ΔA/min (conversion of chromogenic thrombin substrate) [2, 5]: 36 ΔA/min | effect of pretreatment of the samples on the inhibition of thrombin by the substance (in words) [2, 6]: not impaired

O=C(NC[C@H]1CN(c2ccc(N3CCOCC3=O)cc2)C(=O)O1)c1ccc(Cl)s1 [rivaroxaban]
ΔA/min (conversion of chromogenic factor Xa substrate) [1, 7]: 1296 ΔA/min | inhibition at 0.2 µg/mL ([1]; 200 ng/ml in normal human plasma, pretreated sample, read-out: FXa inhibition): 43% | effect of pretreatment of the samples on the inhibition of factor Xa by the substance (in words) [1, 6]: not impaired | inhibition at 0.2 µg/mL [2, 7]: 0% | ΔA/min (conversion of chromogenic thrombin substrate) [2, 7]: 2612 ΔA/min | thrombin inhibition (in words) [2, 4]: thrombin inhibition does not take place
